Data reported in ChEMBL document CHEMBL1201862, “PubChem BioAssay data set” (2004).
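Compound exposure: 48 hours, 5 concentrations, 96-well plates. Here, GI50 denotes the concentration required for 50% inhibition of growth.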 Calls of active or inactive are those of the source. Rule as the data show it: active = GI50 up to about 1.1 µM and inactive = higher.

What was measured:
Assay in all cases: NCI tumour cell line growth inhibition, 48 h
[1] = test system: SK-OV-3
[2] = test system: OVCAR-4
[3] = test system: OVCAR-8
[4] = test system: HOP-62
[5] = test system: UACC-62
[6] = test system: HCC 2998
[7] = test system: SK-MEL-2
[8] = test system: A549
[9] = test system: LOX IMVI
[10] = test system: OVCAR-3
[11] = test system: HCT-15
[12] = test system: NCI-H226
[13] = test system: RPMI-8226
[14] = test system: EKVX
[15] = test system: NCI-H460
[16] = test system: UACC-257

| SMILES | GI50 [1] | GI50 [2] | GI50 [3] | GI50 [4] | GI50 [5] | GI50 [6] | GI50 [7] | GI50 [8] | GI50 [9] | GI50 [10] | GI50 [11] [µM] | GI50 [12] | GI50 [13] | GI50 [14] | GI50 [15] | GI50 [16] |
| --- | --- | --- | --- | --- | --- | --- | --- | --- | --- | --- | --- | --- | --- | --- | --- | --- |
| NC(=S)N/N=C(/CC(=O)c1ccccc1)C(=O)Nc1ccc(Cl)c(Cl)c1 | > 100 µM (inactive) | 57.3 µM (inactive) | 47.6 µM (inactive) | 60.4 µM (inactive) | 27.4 µM (inactive) | 93.5 µM (inactive) | 78.2 µM (inactive) | > 100 µM (inactive) | 74.3 µM (inactive) | 37.3 µM (inactive) | 43.3 | > 100 µM (inactive) | 73.3 µM (inactive) | 33 µM (inactive) | 46.7 µM (inactive) | > 100 µM (inactive) |
| Cn1c(-c2ccccc2)c/c(=N\NS(C)(=O)=O)c2cc(S(=O)(=O)O)ccc21 | > 100 µM (inactive) | > 100 µM (inactive) | > 100 µM (inactive) | > 100 µM (inactive) | > 100 µM (inactive) | > 100 µM (inactive) | > 100 µM (inactive) | > 100 µM (inactive) | > 100 µM (inactive) | > 100 µM (inactive) | > 100 | > 100 µM (inactive) | > 100 µM (inactive) | > 100 µM (inactive) | > 100 µM (inactive) | > 100 µM (inactive) |
| COC(=O)C(Cc1nc2ccccc2nc1O)C(=O)C(=O)Nc1ccc([N+](=O)[O-])cc1[N+](=O)[O-] (centres undefined) | 24.9 µM (inactive) | 20.1 µM (inactive) | 22.3 µM (inactive) | 24.2 µM (inactive) | 18.7 µM (inactive) | 18.1 µM (inactive) | 20.7 µM (inactive) | 34.1 µM (inactive) | 20.9 µM (inactive) | 15.5 µM (inactive) | 17.3 | 14.5 µM (inactive) | 23.1 µM (inactive) | 20 µM (inactive) | 22.1 µM (inactive) | 19.7 µM (inactive) |
| CCC1(O)C(=O)OCc2c1cc1n(c2=O)Cc2cc3cc(OC)c(OC)cc3nc2-1 (centres undefined) | 19.7 µM (inactive) | > 100 µM (inactive) | 82.4 µM (inactive) | 2.79 µM (inactive) | > 10 µM (inactive) | 36.7 µM (inactive) | – | 33.1 µM (inactive) | 7.19 µM (inactive) | 83.4 µM (inactive) | – | 14.8 µM (inactive) | 46.8 µM (inactive) | > 100 µM (inactive) | 3.49 µM (inactive) | > 100 µM (inactive) |
| CCCCC(C(=O)C(=O)NC1C2CC3CC(C2)CC1C3)C(=O)C(C)C (centres undefined) | > 100 µM (inactive) | > 100 µM (inactive) | > 100 µM (inactive) | > 100 µM (inactive) | > 100 µM (inactive) | > 100 µM (inactive) | > 100 µM (inactive) | > 100 µM (inactive) | > 100 µM (inactive) | > 100 µM (inactive) | > 100 | > 100 µM (inactive) | > 100 µM (inactive) | > 100 µM (inactive) | > 100 µM (inactive) | > 100 µM (inactive) |
| Cc1ccc(NC(=O)C(=O)C(C(=O)c2ccc3ccccc3c2)C2OC(=O)c3ccccc32)cc1C (centres undefined) | 26.9 µM (inactive) | 13.1 µM (inactive) | 12.8 µM (inactive) | 14.7 µM (inactive) | 12.4 µM (inactive) | 2.77 µM (inactive) | 15.5 µM (inactive) | 16.5 µM (inactive) | 14.4 µM (inactive) | 10.9 µM (inactive) | 5.02 | 3.14 µM (inactive) | 4.7 µM (inactive) | 63.5 µM (inactive) | 5.74 µM (inactive) | 10 µM (inactive) |
| c1ccc(C2=NOC3COc4ccccc4OCC23)cc1 (centres undefined) | > 100 µM (inactive) | > 100 µM (inactive) | > 100 µM (inactive) | > 100 µM (inactive) | > 100 µM (inactive) | > 100 µM (inactive) | > 100 µM (inactive) | > 100 µM (inactive) | > 100 µM (inactive) | > 100 µM (inactive) | > 100 | – | > 100 µM (inactive) | > 100 µM (inactive) | > 100 µM (inactive) | > 100 µM (inactive) |
| Cc1nc2c(n1Cc1ccc(F)cc1)C(=O)c1ccccc1C2=O | > 100 µM (inactive) | 31.1 µM (inactive) | 35.4 µM (inactive) | 27.7 µM (inactive) | 5.25 µM (inactive) | 87.3 µM (inactive) | 34.1 µM (inactive) | 36.5 µM (inactive) | 7.18 µM (inactive) | 15.1 µM (inactive) | 4.29 | 32.5 µM (inactive) | – | 71 µM (inactive) | 4.07 µM (inactive) | 26.6 µM (inactive) |
| COc1ccc(OC(C(=O)O)c2ccccc2)c2c1CCCC2=O (centres undefined) | > 100 µM (inactive) | > 100 µM (inactive) | > 100 µM (inactive) | > 100 µM (inactive) | > 100 µM (inactive) | > 100 µM (inactive) | > 100 µM (inactive) | > 100 µM (inactive) | > 100 µM (inactive) | > 100 µM (inactive) | > 100 | – | > 100 µM (inactive) | > 100 µM (inactive) | > 100 µM (inactive) | > 100 µM (inactive) |
| c1ccc(CN(Cc2ccccn2)Cn2cccn2)nc1 | 43 µM (inactive) | > 100 µM (inactive) | 32.8 µM (inactive) | > 100 µM (inactive) | 20.3 µM (inactive) | – | > 100 µM (inactive) | 54.6 µM (inactive) | 67.6 µM (inactive) | > 100 µM (inactive) | 28.7 | – | 28.9 µM (inactive) | 34.9 µM (inactive) | 41.2 µM (inactive) | 39 µM (inactive) |
| CC1=C(c2cc(C(=O)Nc3cccc(C(F)(F)F)c3)ncn2)Sc2ccccc2N1 | > 100 µM (inactive) | > 100 µM (inactive) | > 100 µM (inactive) | > 100 µM (inactive) | > 100 µM (inactive) | – | > 100 µM (inactive) | > 100 µM (inactive) | – | > 100 µM (inactive) | > 100 | > 100 µM (inactive) | > 100 µM (inactive) | > 100 µM (inactive) | > 100 µM (inactive) | > 100 µM (inactive) |
| Cc1cccc2c1C/C(=C1\CCc3c(C)cccc31)C2=O | > 100 µM (inactive) | 52.6 µM (inactive) | > 100 µM (inactive) | > 100 µM (inactive) | > 100 µM (inactive) | > 100 µM (inactive) | > 100 µM (inactive) | > 100 µM (inactive) | > 100 µM (inactive) | > 100 µM (inactive) | > 100 | > 100 µM (inactive) | – | > 100 µM (inactive) | > 100 µM (inactive) | > 100 µM (inactive) |
| CC(=O)N(O)Cc1ccccc1 | > 100 µM (inactive) | > 100 µM (inactive) | > 100 µM (inactive) | > 100 µM (inactive) | > 100 µM (inactive) | > 100 µM (inactive) | – | > 100 µM (inactive) | > 100 µM (inactive) | > 100 µM (inactive) | > 100 | > 100 µM (inactive) | > 100 µM (inactive) | – | > 100 µM (inactive) | > 100 µM (inactive) |
| CCOC(=O)N1C/C(=C\c2ccc(N(C)C)cc2)C(=O)/C(=C/c2ccc(N(C)C)cc2)C1 | > 100 µM (inactive) | > 100 µM (inactive) | > 100 µM (inactive) | > 100 µM (inactive) | > 100 µM (inactive) | > 100 µM (inactive) | > 100 µM (inactive) | > 100 µM (inactive) | > 100 µM (inactive) | > 100 µM (inactive) | > 100 | – | > 100 µM (inactive) | > 100 µM (inactive) | > 100 µM (inactive) | > 100 µM (inactive) |
| COc1ccc(OC)c2[nH]c(Sc3c([N+](=O)[O-])ncn3C)nc12 | 35.2 µM (inactive) | 22.9 µM (inactive) | 17.6 µM (inactive) | > 100 µM (inactive) | 18.5 µM (inactive) | 20.3 µM (inactive) | – | 33.7 µM (inactive) | 79.1 µM (inactive) | 16.8 µM (inactive) | 16 | 14.2 µM (inactive) | – | 23.1 µM (inactive) | 38.1 µM (inactive) | 15.3 µM (inactive) |
| C=CCNC(=O)N(CCCCC(NC(C)=O)C(=O)NCc1ccccc1)Cc1ccccc1 (centres undefined) | > 100 µM (inactive) | > 100 µM (inactive) | > 100 µM (inactive) | > 100 µM (inactive) | > 100 µM (inactive) | – | > 100 µM (inactive) | > 100 µM (inactive) | > 100 µM (inactive) | > 100 µM (inactive) | > 100 | > 100 µM (inactive) | > 100 µM (inactive) | > 100 µM (inactive) | > 100 µM (inactive) | > 100 µM (inactive) |
| NCC(=O)OCN1C(=O)C2C3C=CC(C2C1=O)C1C2C(=O)N(COC(=O)CN)C(=O)C2C31 (centres undefined) | 60.8 µM (inactive) | 26.1 µM (inactive) | 20.3 µM (inactive) | – | 24.2 µM (inactive) | – | 21.4 µM (inactive) | 25.5 µM (inactive) | 19.1 µM (inactive) | 35 µM (inactive) | 16.9 | 39.5 µM (inactive) | 28 µM (inactive) | > 100 µM (inactive) | 17.3 µM (inactive) | 31.8 µM (inactive) |
| CCOC(=O)C(C)(C)Oc1ccc2c(=O)cc(-c3ccc(Cl)cc3)oc2c1 | – | > 100 µM (inactive) | > 100 µM (inactive) | > 100 µM (inactive) | > 100 µM (inactive) | > 100 µM (inactive) | > 100 µM (inactive) | > 100 µM (inactive) | > 100 µM (inactive) | > 100 µM (inactive) | > 100 | > 100 µM (inactive) | > 100 µM (inactive) | > 100 µM (inactive) | > 100 µM (inactive) | > 100 µM (inactive) |
